# Data from patent publication US20050272040A1, “Method for increasing synaptic growth or plasticity” (priority 2002, published 2005).
# Assays:
# Type in all cases: cell-based, rat
# [1] = system: hippocampal cells; test: Whole-cell patch-clamp recordings of synaptic charge
# Method: To examine the relationship between synaptic response and gene expression, an individual cell's electrophysiological response to BDNF was examined in conjunction with single-cell RT-PCR for Arc. […] Whole-cell patch-clamp recordings from 16 cells verified 0.8- to 4.5-fold increase in synaptic charge following 20 minutes BDNF exposure. […] A group of BDNF-treated cells presenting a minimal synaptic response was apparent. This group was categorized as non-responders (FIG. 1B) and the other cells showing a greater response to BDNF were classified as responders. To determine whether cellular basal activity influences the response to BDNF, the average synaptic charge pre-BDNF of the responders (36±13.1 pC, n=7) versus the non-responders (23.2±6.6 pC, n=9) was compared.
# To explore a functional role for VGF in neuromodulation, whole-cell patch-clamp recordings on hippocampal cells were performed in the presence of synthetic VGF peptides. The electrophysiological profile of VGF peptides on hippocampal cells was similar to that observed for BDNF (Levine et al. (1996) supra). […] Enhanced synaptic activity was maintained for up to 25 minutes in the continued presence of Thr-Leu-Gln-Pro-62 (SEQ ID NO:14). […] The effects of both Ala-Gln-Glu-Glu-30 (SEQ ID NO:16) and Thr-Leu-Gln-Pro-62 (SEQ ID NO:14) peptides were dose-dependent, saturating at 0.1 μM.
# Whole-cell patch clamp recordings were performed after 10-14 days in culture. Currents were recorded with an Axoclamp 200 amplifier, digitized at 2.5 kHz with an INDEC IDA 15125 interface, filtered at 5 kHz and stored. Recording parameters and stimulus protocols were controlled by custom software written with Borland C++ that utilizes device driver libraries supplied by INDEC. Data analysis programs were written with Microsoft Visual Basic. The. external bath solution for voltage clamp recordings was (in mM) 1.67 CaCl2, 1 MgCl2, 5.36 KCl, 137 NaCl, 17 glucose, 10 HEPES and 20 sucrose (neuron recording solution, NRS). The pipette solution contained (in mM) 105 Cs-methanesulfonate, 17.5 CsCl, 10 HEPES, 0.2 EGTA, 8 NaCl, 2 Mg-ATP, 2 Na-ATP, 0.3 Na-GTP, 20 phosphocreatinine, and 50 U/ml creatinine phosphokinase. All recordings were made at room temperature. The typical range of pipette resistance was 3-5 MΩ. Cell capacitance was 10-20 pF and access resistance was 7-20 MΩ. Vacuum perfusion system contained BDNF (50 ng/ml, Preprotech, Princeton, N.J.), NRS as a control or VGF peptides (0.1 μM=740 ng/ml). Three synthetic rat VGF peptides were used: Leu-Glu-Gly-Ser-28 (SEQ ID NO:15) amino acids 285-312 (amidated), Thr-Leu-Gln-Pro-62 (SEQ ID NO:14) amino acids 556-617 and Ala-Gln-Glu-Glu-30 (SEQ ID NO:16) amino acids 588-617. Each data point represents a cell from a separate dish and at least three different platings were used for each condition.
# Data were analyzed by integrating the synaptic currents for each sweep (synaptic charge). The charge measurements for all sweeps in a 1 min period were averaged (binned). Baseline is considered the average synaptic charge during the 2 min period (−2 to 0 min) in NRS immediately prior to BDNF or VGF application. Fold increases were then determined by dividing the synaptic charge during BDNF or VGF exposure by the baseline. Recordings were rejected if either the 0-5 min binned time period or 5-10 min binned time period after switching during BDNF or VGF exposure was 2×SEM below baseline, indicating “run down”.
# [2] = system: Hippocampal neurons; test: Effect of inhibitors on BDNF-induced gene transcription (real time RT-PCR); conditions: for Effect of inhibitor on BDNF-induced VGF transcription / Effect of inhibitor on BDNF-induced Arc transcription / Effect of inhibitor on BDNF-induced EGR-1 transcription / Effect of inhibitor on BDNF-induced c-fos transcription: 30 min pre-incubation, K252a 200 nM, U0126 30 μM, PD98059 50 μM, U73122 10 μM, KN93 10 μM, LY294002 30 μM, H-89 1 μM, CC 1 μM; for Effect of inhibitor on BDNF-induced VGF transcription: BDNF 3 Hours; for Effect of inhibitor on BDNF-induced Arc transcription / Effect of inhibitor on BDNF-induced EGR-1 transcription / Effect of inhibitor on BDNF-induced c-fos transcription: BDNF 20 Minutes; for Effect on BDNF-induced transcription of the immediate early genes and VGF: BDNF 20 min for immediate early genes, 3 hr for VGF
# Method: Signaling cascades involved in BDNF-mediated synaptic strengthening include mitogen-activated protein (MAP) kinase, phospholipase C-γ (PLC-γ) and phosphoinositide-3 kinase (PI3K) (Gottschalk et al. (1999) supra; Minichiello et al. (2002) supra; Ying et al. (2002); Mizuno et al. (2003) supra). To determine whether these transduction pathways are also required for BDNF transcriptional regulation of immediate early genes at 20 minutes and for VGF at 3 hours, pharmacological inhibitors were employed (Table 2).
# Effect of inhibitors on BDNF-induced gene transcription. The regulation of BDNF-induced genes in the presence of inhibitors was determined by real time RT-PCR. Neurons were pre-incubated with inhibitors for 30 minutes prior to BDNF treatment (20 minutes for immediate early genes and 3 hours for VGF). […] “blocked” indicates significant reduction of transcription in the presence of inhibitor plus BDNF relative to BDNF alone (p<0.05, ANOVA, n=3).
# Each experiment consisted of four groups: vehicle, inhibitor alone, BDNF, BDNF plus inhibitor. Data were normalized to GAPDH and expressed as a fold change of vehicle control.
# (§1) cDNA (100 μl) was prepared from 2 μg control or BDNF-treated RNA using random primers and Superscript II reverse transcriptase. 25 μl PCR reactions were then carried out using gene specific primers designed by Primer Express software and TaqMan MGB probes (Applied Biosystems 7000 Sequence Detection System, Foster City, Calif.). Duplicate wells were included for each condition and primer pair. Primers specific to the housekeeping gene, glyceraldehyde-3-phosphate dehydrogenase (GAPDH) were used as an internal control. Data analysis was performed according to the protocol provided by Applied Biosystems.
# Hippocampal neurons were pre-incubated with inhibitors for 30 min prior to BDNF treatment (20 min for IEGs and 3 hr for VGF). All inhibitors were purchased from Calbiochem, San Diego, Calif. K252a (200 nM), U0126 (30 μM), PD98059 (50 μM), U73122 (10 μM), KN93 (10 μM), LY294002 (30 μM), H-89 (1 μM) and chelerythrine chloride (CC, 1 μM). Pharmacological inhibitors were tested for efficacy by assaying downregulation of endogenous kinase phosphorylation in cell culture using Western blot (Y. Z. Du and C. F. Dreyfus, personal communication). Each experiment consisted of 4 groups: vehicle, inhibitor alone, BDNF, and BDNF plus inhibitor. Following inhibitor and BDNF treatments, RNA was isolated and subjected to real time RT-PCR as described above.
# [3] = system: hippocampal cells; test: Real-time RT-PCR of genes induced by neurotrophin treatment of hippocampal cultures; parameters: key to NGF effect on Fra2 transcription / NGF effect on CyclinD1 transcription / NGF effect on c-fos transcription / NGF effect on Kv + 1.1 transcription / NGF effect on Na + ch transcription / NGF effect on SgII transcription / NGF effect on SSTR4 transcription / NGF effect on UNC5H2 transcription / NGF effect on NPY transcription / NGF effect on VGF transcription / NGF effect on EGR1 transcription / NGF effect on PTP1B transcription / NGF effect on Arc transcription: UC = unchanged; DOWN: down = decreased
# Method: The molecular genetics underlying BDNF-evoked plasticity were examined by expression profiling using cDNA microarrays on a population of hippocampal cells in vitro. Synaptic effects of BDNF are observed within 20 minutes of exposure (Levine et al. (1996) supra; Lessmann and Heumann (1998) supra; Schinder et al. (2000) supra). A 3-hour BDNF treatment has been used to identify several genes with roles in synaptic plasticity (Thakker-Varia et al. (2001) supra). Consequently, to reveal immediate, as well as downstream transcriptional changes, both acute (20 minutes) and longer treatment (3 hours) with BDNF were used herein. […] Two independent Atlas arrays were performed using RNA from hippocampal cells treated for either 20 minutes or 3 hours of BDNF (50 ng/mL) and control sister cultures.
# Of those genes selected, the regulation of 7% at 20 minutes and 40% at 3 hours were validated, although the magnitude of regulation was not always identical to that observed on the microarray. To focus on genes specifically involved in plasticity, a related neurotrophin, nerve growth factor (NGF), not inducing synaptic plasticity (Levine et al. (1996) supra), served as a control.
# Time-mated pregnant rats were sacrificed by CO2 asphyxiation in accordance with institutional guidelines for care and use of animals. Fetuses were removed by caesarean section and transferred to a sterile petri dish with phosphate-buffered saline. Fetal hippocampi were dissected from surrounding brain tissue and meninges were completely removed. Low-density cultures of dissociated embryonic day 18 rat hippocampi (Sprague Dawley from Hilltop Laboratories, Scottsdale, Pa.) were prepared using standard methods (Thakker-Varia et al. (2001) supra). Briefly, pooled tissue from each litter was mechanically dissociated in nutrient medium containing 7.5% fetal bovine serum and plated on poly-D-lysine-coated culture dishes at 350,000 cells/dish. Cultures were maintained in serum-free medium (Thakker-Varia et al., 2001) for 10-14 days and contained pure neurons.
# Total cellular RNA was prepared from neuronal cultures treated with either BDNF (50 ng/ml) or vehicle (water) for either 20 min or 3 hr by the guanidine isothiocyanate method and CsCl gradients (Thakker-Varia et al., 2001). DNAse-treated total RNA was prepared from neurotrophin or control hippocampal cultures and reverse transcribed using gene specific primers. Radioactively labeled probes were then hybridized to Atlas Arrays Rat 1.2 (Clontech, Palo Alto, Calif.) according to manufacturer's protocol. Arrays were performed in duplicate with an independent source of RNA. The hybridization pattern was analyzed on a phosphorimager and normalized to the global hybridization signal. Analysis was performed by Clontech using 1.7-fold change as criteria for significance. All transcriptional changes were confirmed by real time RT-PCR on independent samples (see below).
# as §1
# [4] = NGF as control neurotrophin, 20 minute section of Table 1
# [5] = NGF as control neurotrophin, 3 hour section of Table 1
Compound,Effect of inhibitor on BDNF-induced VGF transcription [2],Effect of inhibitor on BDNF-induced Arc transcription [2],Effect of inhibitor on BDNF-induced EGR-1 transcription [2],Effect of inhibitor on BDNF-induced c-fos transcription [2],Effect on BDNF-induced transcription of the immediate early genes and VGF [2],other results
"Ala-Gln-Glu-Glu-30: synthetic rat VGF peptide, amino acids 588-617, C-terminal region (AQEE)",,,,,,Saturating concentration of dose-dependent effect on synaptic charge [1]: 0.1 µM
COc1ccc(S(=O)(=O)N(CCO)c2ccccc2CN(C)C/C=C/c2ccc(Cl)cc2)cc1 [KN93],Blocked,Blocked,Blocked,Blocked,blocked,
COC(=O)[C@@]1(O)C[C@H]2O[C@]1(C)n1c3ccccc3c3c4c(c5c6ccccc6n2c5c31)C(=O)NC4 [K252a],Blocked,Blocked,Blocked,Blocked,blocked,
O=S(=O)(NCCNC/C=C/c1ccc(Br)cc1)c1cccc2cnccc12 [H-89],,,,,did not affect gene expression,
"Thr-Leu-Gln-Pro-62: synthetic rat VGF peptide, amino acids 556-617, C-terminal portion of VGF (TLQP)",,,,,,"Saturating concentration of dose-dependent effect on synaptic charge [1]: 0.1 µM; Time to increased synaptic charge ([1]; after start of peptide perfusion): ≤ 5 min; Time enhanced synaptic activity was maintained ([1]; continued presence of peptide): up to 25 minutes; Effect on synaptic charge ([1]; perfusion of synthetic rat VGF peptide, 0.1 μM): Increased synaptic charge"
COc1cccc(-c2cc(=O)c3ccccc3o2)c1N [PD98059],Blocked,Blocked,Blocked,Blocked,blocked,
COc1ccc2c(c1)CC[C@@H]1[C@@H]2CC[C@]2(C)[C@@H](NCCCCCCN3C(=O)C=CC3=O)CC[C@@H]12 [U73122],Blocked,Blocked,,Blocked,blocked,
"NGF: related neurotrophin, nerve growth factor, not inducing synaptic plasticity, served as a control",,,,,,"Effect of NGF on transcription of BDNF-induced genes [3]: did not affect transcription of most genes; NGF effect on Arc transcription [3, 4]: UC; NGF effect on EGR1 transcription [3, 4]: UC; NGF effect on c-fos transcription [3, 4]: UC; NGF effect on Arc transcription [3, 5]: UC; NGF effect on CyclinD1 transcription [3, 5]: UC; NGF effect on EGR1 transcription [3, 5]: UC; NGF effect on Fra2 transcription [3, 5]: DOWN; NGF effect on Kv + 1.1 transcription [3, 5]: UC; NGF effect on NPY transcription [3, 5]: DOWN; NGF effect on Na + ch transcription [3, 5]: UC; NGF effect on PTP1B transcription [3, 5]: UC; NGF effect on SSTR4 transcription [3, 5]: DOWN; NGF effect on SgII transcription [3, 5]: UC; NGF effect on UNC5H2 transcription [3, 5]: UC; NGF effect on VGF transcription [3, 5]: UC; NGF effect on c-fos transcription [3, 5]: UC"
N#CC(=C(/N)Sc1ccccc1N)/C(C#N)=C(\N)Sc1ccccc1N [U0126],Blocked,Blocked,Blocked,Blocked,blocked,
